How the values were obtained:
[1] = Stability/conversion of esters in rat liver S9; type: in vitro ADME
Experimental: (§1) The human intestinal S9 with the absence of PMSF, human liver S9, rat intestinal S9, and rat liver S9 preparations were obtained from Xenotech (Lenexa, Kans.). The 500-μL incubation solution contained 0.8 mg/mL of enzyme (or no enzyme for buffer stability), 10 μM of test compounds in 100 mM of HEPES buffer, pH 7.4. The hydrolysis reactions were conducted in a 1-mL glass insert (Analytical Sales, Pompton Plains, N.J.) in a shake water bath at 37° C. At 0, 2, 5, 10, 15, 30 and 60 min, the reaction was terminated by pipetting 50 μL incubate to a 96 DeepWell plate (Thermo Fisher Scientific, Rochester, N.Y.) containing 100 μL of acetonitrile with 250 ng/mL of Carbutamide (Sigma-Aldrich, St. Louis, Miss.) as the internal standard. The crashed solutions were then vortexed well followed by centrifuge at 4000 rpm for 15 min at 4° C. The extract was transferred to a new 96 DeepWell plate for LC-MS/MS analysis.
(§2) LC-MS/MS analysis was done using an AB Sciex QTrap 6500 mass spectrometer under positive ionization mode, coupled to a Schimadzu Nexera LC system.
(§3) A Waters Atlantis T3 (3 μm, 3.0×50 mm) column was used for separation. The mobile phase consisted 0.1% formic acid in water (A) and 0.1% formic acid in acetonitrile (B) with a flow rate set at 1.2 mL/min. For the prodrug analysis, the Multiple Reaction Monitoring (MRM) specific for each compound was set up so that both prodrug and its hydrolyzed active can be monitored simultaneously.
(§4) Half-lives listed are based on disappearance of starting ester.

[2] = Stability/conversion of esters in human liver S9; type: in vitro ADME
Experimental: as §1, §2, §3, §4

[3] = Stability/conversion of esters in human intestinal S9; type: in vitro ADME
Experimental: as §1, §2, §3, §4

[4] = Stability/conversion of esters in rat intestinal S9; type: in vitro ADME
Experimental: as §1, §2, §3, §4

[5] = Stability in pH 7.4 buffer (no enzyme); type: physicochemical; details: read-out: T1/2 pH 7.4 Buffer
Experimental: as §1, §2, §3, §4

[6] = liver S9, pH 7.4, read-out: T1/2 Rat Liver S9
[7] = liver S9, pH 7.4, read-out: T1/2 Human Liver S9
[8] = intestinal S9 (without PMSF), pH 7.4, read-out: T1/2 Human Intestinal S9
[9] = intestinal S9, pH 7.4, read-out: T1/2 Rat Intestinal S9
[10] = s9, pH 7.4, read-out: T1/2 Rat Liver S9
[11] = s9, pH 7.4, read-out: T1/2 Human Liver S9
[12] = s9, pH 7.4, read-out: T1/2 Human Intestinal S9
[13] = s9, pH 7.4, read-out: T1/2 Rat Intestinal S9

| half-life at 10 μM [1, 6] | half-life at 10 μM [2, 7] | half-life at 10 μM [3, 8] | half-life at 10 μM [4, 9] | half-life at 10 μM ([5]; HEPES buffer without enzyme) | SMILES | half-life at 10 μM [1, 10] | half-life at 10 μM [2, 11] | half-life at 10 μM [3, 12] | half-life at 10 μM [4, 13] | half-life at 10 μM ([5]; buffer) |
| --- | --- | --- | --- | --- | --- | --- | --- | --- | --- | --- |
| 1.7 min | 6.4 min | 1.5 min | 4.1 min | 75 min | CCCCCOC(=O)[C@@H](F)ON1C(=O)N2C[C@H]1C=C(C)[C@H]2C(N)=O [Example 51, pentyl (2R)-2-[[(2S,5R)-2-carbamoyl-3-methyl-7-oxo-1,6-diazabicyclo[3.2.1]oct-3-en-6-yl]oxy]-2-fluoro-acetate] | – | – | – | – | – |
| – | – | – | – | – | CC[C@@H](C)OC(=O)[C@@H](F)ON1C(=O)N2C[C@H]1C=C(C)[C@H]2C(N)=O [Example 22, (2R)-(R)-sec-butyl 2-(((2S,5R)-2-carbamoyl-3-methyl-7-oxo-1,6-diazabicyclo[3.2.1]oct-3-en-6-yl)oxy)-2-fluoroacetate] | 9.2 min | 4.6 min | 43 min | 56 min | 38 min |
| – | – | – | – | – | CC1=C[C@@H]2CN(C(=O)N2O[C@H](F)C(=O)OCc2ccccc2)[C@@H]1C(N)=O [Example 54, (2R)-benzyl 2-(((2S,5R)-2-carbamoyl-3-methyl-7-oxo-1,6-diazabicyclo[3.2.1]oct-3-en-6-yl)oxy)-2-fluoroacetate] | 0.9 min | 1.9 min | 5 min | 19 min | 22 min |
| – | 1 min | 44 min | – | 55 min | CC1=C[C@@H]2CN(C(=O)N2O[C@@H](F)C(=O)OC(C)C)[C@@H]1C(N)=O [Example 13, propan-2-yl (2S)-{[(2S,5R)-2-carbamoyl-3-methyl-7-oxo-1,6-diazabicyclo[3.2.1]oct-3-en-6-yl]oxy}(fluoro)ethanoate] | – | – | – | – | – |
| – | – | – | – | – | CC[C@H](C)OC(=O)[C@@H](F)ON1C(=O)N2C[C@H]1C=C(C)[C@H]2C(N)=O [Example 20, (2R)-(S)-sec-butyl 2-(((2S,5R)-2-carbamoyl-3-methyl-7-oxo-1,6-diazabicyclo[3.2.1]oct-3-en-6-yl)oxy)-2-fluoroacetate] | 6.1 min | 5.1 min | 40 min | 54 min | 39 min |
| 2.8 min | 3.5 min | 73 min | 30 min | 120 min | CCCCOC(=O)[C@@H](F)ON1C(=O)N2C[C@H]1C=C(C)[C@H]2C(N)=O [Example 50, butyl (2R)-2-[[(2S,5R)-2-carbamoyl-3-methyl-7-oxo-1,6-diazabicyclo[3.2.1]oct-3-en-6-yl]oxy]-2-fluoro-acetate] | – | – | – | – | – |
| 1.8 min | 2.3 min | 8.2 min | 11 min | 12 min | C=CCOC(=O)[C@@H](F)ON1C(=O)N2C[C@H]1C=C(C)[C@H]2C(N)=O [Example 47, allyl (2R)-2-[[(2S,5R)-2-carbamoyl-3-methyl-7-oxo-1,6-diazabicyclo[3.2.1]oct-3-en-6-yl]oxy]-2-fluoro-acetate] | – | – | – | – | – |
| 3 min | 6.1 min | 42 min | 50 min | 62 min | CCCOC(=O)[C@@H](F)ON1C(=O)N2C[C@H]1C=C(C)[C@H]2C(N)=O [Example 48, propyl (2R)-2-[[(2S,5R)-2-carbamoyl-3-methyl-7-oxo-1,6-diazabicyclo[3.2.1]oct-3-en-6-yl]oxy]-2-fluoro-acetate] | – | – | – | – | – |
| – | – | – | – | – | CCC(CC)OC(=O)[C@@H](F)ON1C(=O)N2C[C@H]1C=C(C)[C@H]2C(N)=O [Example 24, (R)-pentan-3-yl 2-((2S,5R)-2-carbamoyl-3-methyl-7-oxo-1,6-diazabicyclo[3.2.1]oct-3-en-6-yloxy)-2-fluoroacetate] | – | 9 min | 34 min | – | > 100 min |
| – | – | – | – | – | CCOC(=O)[C@@H](F)ON1C(=O)N2C[C@H]1C(C)=C[C@H]2C#N [Example 94, ethyl (2R)-2-(((2S,5R)-2-cyano-4-methyl-7-oxo-1,6-diazabicyclo[3.2.1]oct-3-en-6-yl)oxy)-2-fluoroacetate] | 1.3 min | – | 10.6 min | 25.9 min | 46.9 min |

Reference: patent US10800778B2 (Entasis Therapeutics Limited, priority 2016, dated 2020)
